target: Beta-secretase 1 (Homo sapiens, UniProt P56817); experiment: Biochemical Assay; settings: pH 4.5; 37 °C
Protocol: Briefly, the assay was carried out by incubation of the substrate peptide (5 μM), BACE1 enzyme (550 ng/mL) that was expressed and purified from insect expression system and varied concentrations of compounds at pH 4.5. After 1 h incubation at 37°C, stop buffer (3 M sodium acetate) was introduced into the reaction mixture to stop the reaction. Finally, the fluorescence intensity was measured on a TECAN GENios reader (Tecan) at room temperature with excitation at 420 nm and emission at 530 nm.

Chain of Beta-secretase 1 (P56817 whole entry): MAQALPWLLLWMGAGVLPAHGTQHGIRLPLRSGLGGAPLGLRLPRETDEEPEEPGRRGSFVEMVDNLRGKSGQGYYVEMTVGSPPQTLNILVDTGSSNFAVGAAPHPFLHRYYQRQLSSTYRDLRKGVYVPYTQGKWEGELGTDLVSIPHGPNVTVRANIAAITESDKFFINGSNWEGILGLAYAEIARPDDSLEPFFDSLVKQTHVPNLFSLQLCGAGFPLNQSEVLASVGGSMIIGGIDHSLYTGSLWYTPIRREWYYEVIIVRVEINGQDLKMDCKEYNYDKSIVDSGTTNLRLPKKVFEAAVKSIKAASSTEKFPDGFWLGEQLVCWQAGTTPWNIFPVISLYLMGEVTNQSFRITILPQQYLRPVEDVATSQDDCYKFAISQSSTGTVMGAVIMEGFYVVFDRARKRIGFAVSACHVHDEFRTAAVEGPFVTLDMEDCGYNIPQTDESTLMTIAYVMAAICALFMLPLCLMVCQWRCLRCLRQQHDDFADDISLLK

Compared with `O=C(/C=C/c1ccccc1O)c1cc(O)ccc1O`, `O=C(/C=C/c1ccccc1O)c1ccc(O)cc1O` [2,2'',4''-Trihydroxychalcone] is 17-fold lower in IC50: 41.8 µM for the first, 2.45 µM for the second. The second is the more potent here.

`O=C(/C=C/c1ccccc1O)c1c(O)cccc1O` [(E)-1-(2,6-dihydroxyphenyl)-3-(2-hydroxyphenyl)-2-propen-1-one (14)] and `O=C(/C=C/c1ccccc1O)c1cccc(O)c1O` [(E)-1-(2,3-dihydroxyphenyl)-3-(2-hydroxyphenyl)-2-propen-1-one (12)] are within 1.5-fold of each other in IC50: 15.6 µM for the first, 21.8 µM for the second.

Going from `O=C(/C=C/c1cccc(O)c1)c1ccc(O)cc1O` [(E)-3,2'',4''-Trihydroxychalcone] to `O=C(/C=C/c1ccc(O)c(O)c1)c1ccc(O)cc1O` [(E)-3-(3,4-Dihydroxy-phenyl)-1-(2,4-dihydroxy-phenyl)-propenone], the IC50 falls from 8.03 µM to 2.37 µM (3.4-fold).

Going from `O=C(/C=C/c1ccccc1O)c1cc(O)cc(O)c1` [(E)-1-(3,5-dihydroxyphenyl)-3-(2-hydroxyphenyl)-2-propen-1-one (16)] to `O=C(/C=C/c1ccccc1O)c1ccc(O)c(O)c1` [(E)-1-(3,4-dihydroxyphenyl)-3-(2-hydroxyphenyl)-2-propen-1-one (15)], the IC50 falls from 19.4 µM to 11.8 µM (1.6-fold).

First: O=C(/C=C/c1ccccc1O)c1ccc(O)cc1 [(E)-1-(4-hydroxyphenyl)-3-(2-hydroxyphenyl)-2-propen-1-one (11)]
Second: O=C(/C=C/c1ccccc1O)c1cccc(O)c1 [(E)-1-(3-hydroxyphenyl)-3-(2-hydroxyphenyl)-2-propen-1-one (10)]
The IC50 of the first is 1.9-fold higher: 58.1 µM for the first, 30.4 µM for the second.

`O=C(/C=C/c1ccccc1O)c1ccccc1O` and `O=C(/C=C/c1ccccc1O)c1ccccc1` [Chalcone, 1] cannot be ordered by IC50: over 60 µM for the first, over 60 µM for the second.

Going from `COc1ccccc1/C=C/C(=O)c1ccc(O)cc1O` [(E)-1-(2,4-dihydroxyphenyl)-3-(2-methoxyphenyl)-2-propen-1-one (4)] to `C=CCOc1ccccc1/C=C/C(=O)c1ccc(O)cc1O`, the IC50 rises from 2.63 µM to over 60 µM.

First: O=C(/C=C/c1cccc(O)c1O)c1ccc(O)cc1O [(E)-1-(2,4-dihydroxyphenyl)-3-(2,3-dihydroxyphenyl)-2-propen-1-one (17)]
Second: O=C(/C=C/c1c(O)cccc1O)c1ccc(O)cc1O [(E)-1-(2,4-dihydroxyphenyl)-3-(2,6-dihydroxyphenyl)-2-propen-1-one (20)]
The IC50 of the first is 6.3-fold lower: 0.27 µM for the first, 1.71 µM for the second. The first is the more potent here.

Compared with `O=C(/C=C/c1ccccc1Cl)c1ccc(O)cc1O`, `O=C(/C=C/c1ccccc1[N+](=O)[O-])c1ccc(O)cc1O` [(E)-1-(2,4-dihydroxyphenyl)-3-(2-nitrophenyl)-2-propen-1-one (7)] is higher in IC50: 11.4 µM for the first, over 60 µM for the second. The first is the more potent here.

First: O=C(/C=C/c1cc(O)ccc1O)c1ccc(O)cc1O [(E)-1-(2,4-dihydroxyphenyl)-3-(2,5-dihydroxyphenyl)-2-propen-1-one (19)]
Second: O=C(/C=C/c1ccc(O)cc1O)c1ccc(O)cc1O [2,2',4,4'-tetrahydroxychalcone]
The IC50 of the first is 3.1-fold higher: 1.94 µM for the first, 0.62 µM for the second. The second is the more potent here.

Compound `O=C(/C=C/c1cc(O)cc(O)c1)c1ccc(O)cc1O` [(E)-1-(2,4-dihydroxyphenyl)-3-(3,5-dihydroxyphenyl)-2-propen-1-one (22)] has an IC50 of 2.08 µM.

Source: BindingDB's records for doi:10.3109/14756366.2010.543420 (Shanghai Institute of Material Medica, Chinese Academy of …, 2011)
